The source of these data is patent US7820379B2, “Process for high throughput screening of CpG-based immuno-agonist/antagonist” (Coley Pharmaceutical GmbH, priority 2000, dated 2010).

The target of series [1] is T1, murine TLR9 (Mus musculus, UniProt Q9EQU3, L378S/Q579H/T325N/T573A/T867A).
T1 construct: additional primers were designed for amplification of the complete mouse TLR9 cDNA; expressed in transfected cells
T1 sequence (Q9EQU3 26-1032 T325N/L378S/T573A/Q579H/T867A): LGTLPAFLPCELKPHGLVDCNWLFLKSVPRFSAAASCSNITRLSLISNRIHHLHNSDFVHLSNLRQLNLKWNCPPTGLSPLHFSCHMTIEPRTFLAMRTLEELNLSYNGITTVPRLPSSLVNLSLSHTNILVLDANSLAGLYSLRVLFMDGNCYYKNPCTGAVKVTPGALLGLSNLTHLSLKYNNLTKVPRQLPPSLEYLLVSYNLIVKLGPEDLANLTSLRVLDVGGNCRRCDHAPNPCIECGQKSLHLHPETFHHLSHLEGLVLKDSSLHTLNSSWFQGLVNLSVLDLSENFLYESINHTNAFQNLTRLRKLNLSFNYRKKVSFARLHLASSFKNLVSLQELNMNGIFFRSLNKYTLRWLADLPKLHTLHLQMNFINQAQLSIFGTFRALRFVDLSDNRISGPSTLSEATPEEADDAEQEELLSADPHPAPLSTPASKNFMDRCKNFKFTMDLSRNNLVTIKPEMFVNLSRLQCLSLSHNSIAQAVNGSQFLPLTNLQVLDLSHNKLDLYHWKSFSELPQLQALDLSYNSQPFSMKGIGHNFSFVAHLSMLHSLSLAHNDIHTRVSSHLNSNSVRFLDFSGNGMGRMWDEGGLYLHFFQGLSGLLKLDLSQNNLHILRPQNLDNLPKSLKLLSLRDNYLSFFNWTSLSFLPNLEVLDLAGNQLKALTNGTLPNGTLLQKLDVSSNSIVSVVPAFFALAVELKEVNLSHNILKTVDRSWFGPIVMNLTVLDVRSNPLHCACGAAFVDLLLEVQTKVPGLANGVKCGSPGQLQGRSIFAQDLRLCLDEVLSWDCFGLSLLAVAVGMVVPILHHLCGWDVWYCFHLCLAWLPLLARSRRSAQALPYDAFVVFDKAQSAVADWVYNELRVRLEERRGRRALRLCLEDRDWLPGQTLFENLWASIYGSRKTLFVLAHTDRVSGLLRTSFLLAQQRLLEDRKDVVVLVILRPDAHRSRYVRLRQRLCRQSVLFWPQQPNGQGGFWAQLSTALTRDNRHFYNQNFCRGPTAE
The series can be described thus: IL-8 production by ELISA in 293 cells transfected with murine TLR9. Type of series: cell-based. The following applies: 293 cells transiently transfected with mTLR9, stimulated with 1.0 μM CpG-ODN 1668; 48 h. An excerpt: Human fibroblast 293 cells were transiently transfected with mTLR9 and the NF-κB-luc construct (FIG. 2). Similar data was obtained for IL-8 production (not shown). Thus expression of TLR9 (human or mouse) in 293 cells results in a gain of function for CpG-DNA stimulation similar to hTLR4 reconstitution of LPS responses.
To generate stable clones expressing human TLR9, murine TLR9, or either TLR9 with the NF-κB-luc reporter plasmid, 293 cells were transfected in 10 cm plates (2×10^6 cells/plate) with 16 μg of DNA and selected with 0.7 mg/ml G418 (PAA Laboratories GmbH, Cölbe, Germany). The clones were also screened for IL-8 production or NF-κB-luciferase activity after stimulation with ODN. Four different types of clones were generated. • 293-hTLR9-luc: expressing human TLR9 and 6-fold NF-κB-luciferase reporter • 293-mTLR9-luc: expressing murine TLR9 and 6-fold NF-κB-luciferase reporter • 293-hTLR9: expressing human TLR9 • 293-mTLR9: expressing murine TLR9
It has been hypothesized that in order for DNA to enter the endosomal/lysosomal compartment a non-CpG dependent uptake receptor may be required. 293 cells were transiently transfected with mTLR9 treated with either medium only or 1.0 μM CpG-ODN 1668 (FIG. 15). […] IL-8 production was monitored after 48 h by ELISA.
(ELISA stands for enzyme-linked immunosorbent assay.)

For series [2], the system named is TLR9. The series can be described thus: Expression of TLR9. Type of series: cell-based. An excerpt: The invention also embraces agents which bind selectively to certain regulatory sequences associated with the murine TLR9 nucleic acid molecules described herein. The agents include polypeptides which bind to transcription and translation regulatory sequences of murine TLR9, and antisense nucleic acids, both of which are described in greater detail below. The agents can inhibit or increase murine TLR9 expression, as well as signaling activity (antagonists and agonists, respectively). Agents which bind selectively to regulatory sequences associated with the murine TLR9 nucleic acid molecules can be identified using methods familiar to those of skill in the art. For example, a promoter region including at least 100, 200, 300, 400, 500, or more nucleotides upstream (5′) of the coding region of murine TLR9 can be identified by isolating, from appropriate genomic DNA, such nucleotide sequences using the sequences of SEQ ID NO:1 or SEQ ID NO:2 as primers or as probes, and then inserting the promoter region DNA into an appropriate expression vector so as to control the expression of TLR9 or some other reporter gene, introducing the TLR9 promoter vector into an appropriate host cell, and screening for TLR9 or reporter expression by those cells following their incubation in the presence and absence of various test agents. […]

As for “5′-CTCCTAGTGGGGGTGTCCTAT-3′ (listed as DNA, chemistry not given here) [PZ2]”, the “antagonism of activation (IL-8 production)” value in series [1] is recorded as “in a dose-dependent manner, was able to antagonize the activation”.

B1: IL-4: the cytokine IL-4 (protein, UniProt P05112 25-153, looked up)
Interleukin-4: HKCDITLQEIIKTLNSLTEQKTLCTELTVTDIFAASKNTTEKETFCRAATVLRQFYSHHEKDTRCLGATAQQFHRHKQLIRFLKRLDRNLWGLAGLNSCPVKEANQSTLENFLERLKTIMREKYSKCSS
Consider B1, for which the “expression of TLR9” value in series [2] is on record as “inhibits”.
